Laboratory results published in patent US20190046486A1, “COMPOSITIONS AND METHODS FOR THE TREATMENT OF NEURONAL INJURY” (AXCELLA HEALTH INC., priority 2017, published 2019).

Columns and labels:
[1] = system: TNFα; assay: TNFα levels in LPS-activated primary microglia cells treated with amino acid combinations; format: cell-based, mouse; conditions: for TNFα Measurements, Mean: mouse microglia supernatant, 12 h after LPS 100 ng/ml, LIV 2.5 mM, NAC, ALCAR, CR 1 mM each, 6 replicates
Procedure: (§1) Pups were decapitated, brains removed from the skulls, cortices dissected and collected in Calcium and Magnesium free Hanks Balanced Salt Solution (CMF-HBSS) on ice. Cortices were chopped with a sterile razor blade in chop solution (CMF-HBSS) and digested in 2 ml digestion solution (0.25% trypsin in CMF-HBSS) in a 15 ml sterile plastic tube for 20 minutes at 37° C. in a water bath. After removing as much as possible of the digestion solution (approximately 1 ml), the digestion was stopped by adding 3 ml stop solution (0.01% DNaseI and 0.5% trypsin inhibitor in FCS). Cortices were triturated 10-15 times with a fire-polished Pasteur pipette and centrifuged at 300 g for 5 minutes. The pellet was resuspended in 1 ml nutrition medium (10% FCS, 1% Penicillin-Streptomycin, 2 mM L-glutamine in DMEM) per pup. Cells were seeded into poly-D-lysine pre-coated T75 flasks containing 14 ml nutrition medium (one pup per flask). Medium was changed every 3 to 4 days and cells were cultured at 37° C., 95% humidity and 5% CO2 for approximately 14 days before harvesting the microglia.
(§2) After approximately 14 days of cultivation microglia cells were harvested by shaking the T75 flasks at 200 rpm at 37° C. for 2 h. After visual inspection confirming that the microglia cells had detached, the supernatants containing the microglia were transferred to 50 ml tubes (supernatant from 1 flask into 1 tube) and centrifuged at 300 g for 10 minutes. The pelleted microglia cells were resuspended in 2 ml of nutrition medium. Microglia cells were seeded into uncoated plates 1×10^5 cells/well (96 well plate) and incubated for 2 h at 37° C. Then the plates were rocked at 100 rpm for 5 minutes to detach the oligodendrocytes. The medium containing the oligodendrocytes was exchanged with fresh medium and microglia cells were incubated for 2 days at 37° C. before LPS treatment. 24 h before LPS stimulation single amino acids and combinations were administered. Next, 1 h before LPS stimulation, medium was changed to treatment medium (DMEM, 5% FBS, 2 mM L-glutamine) containing amino acids or combinations. Cells were maintained in treatment medium for the remaining culture period. One hour after changing cells to treatment medium, cells were stimulated with LPS (100 ng/ml) for 12 h in total. Cells treated with vehicle, LPS alone served as controls.
(§3) After 12 h of LPS stimulation, cell supernatants were collected and cytokines IL-6 and TNFα were measured. […]
(§4) Levels of TNFα an IL-6 were measured in supernatants of primary microglia cells collected 12 h after LPS stimulation. Cytokines were measured by an immunosorbent assay (U-PLEX Custom Mouse Cytokine, Mesoscale Discovery) according to the instructions of the manufacturer and evaluated in comparison to calibration curves provided in the kit. […]

[2] = system: IL-6; assay: IL-6 levels in LPS-activated primary microglia cells treated with amino acid combinations; format: cell-based, mouse; conditions: for IL-6 Measurements, Mean: mouse microglia supernatant, 12 h after LPS 100 ng/ml, LIV 2.5 mM, NAC, ALCAR, CR 1 mM each, 6 replicates
Procedure: as §1, §2, §3, §4

[3] = mouse microglia activated with LPS

SMILES	TNFα Measurements, Mean [1]	IL-6 Measurements, Mean [2]	TNFα protein level compared to vehicle treated with LPS stimulus [1, 3]	IL-6 protein level compared to vehicle treated with LPS stimulus [2, 3]
CC(=O)O[C@H](CC(=O)[O-])C[N+](C)(C)C [ALCAR, acetyl-1-carnitine]	21897 pg per ml	59600 pg per ml		
CN(CC(=O)O)C(=N)N [CR, creatine]	17884 pg per ml	56492 pg per ml		
CC(=O)N[C@@H](CS)C(=O)O [NAC, N-acetylcysteine]	14814 pg per ml	46749 pg per ml	reduced	reduced
